The source of these data is the Kinase Knowledgebase extract (Sharma et al. 2016).

pIC50: −log10 of the molar value.

In this experiment the target is PIK3CG (human) (UniProt P48736). Nature of the experiment: Inhibition of PIK3CG Kinase Activity.
PIK3CG (human), sequence (P48736 whole entry, looked up): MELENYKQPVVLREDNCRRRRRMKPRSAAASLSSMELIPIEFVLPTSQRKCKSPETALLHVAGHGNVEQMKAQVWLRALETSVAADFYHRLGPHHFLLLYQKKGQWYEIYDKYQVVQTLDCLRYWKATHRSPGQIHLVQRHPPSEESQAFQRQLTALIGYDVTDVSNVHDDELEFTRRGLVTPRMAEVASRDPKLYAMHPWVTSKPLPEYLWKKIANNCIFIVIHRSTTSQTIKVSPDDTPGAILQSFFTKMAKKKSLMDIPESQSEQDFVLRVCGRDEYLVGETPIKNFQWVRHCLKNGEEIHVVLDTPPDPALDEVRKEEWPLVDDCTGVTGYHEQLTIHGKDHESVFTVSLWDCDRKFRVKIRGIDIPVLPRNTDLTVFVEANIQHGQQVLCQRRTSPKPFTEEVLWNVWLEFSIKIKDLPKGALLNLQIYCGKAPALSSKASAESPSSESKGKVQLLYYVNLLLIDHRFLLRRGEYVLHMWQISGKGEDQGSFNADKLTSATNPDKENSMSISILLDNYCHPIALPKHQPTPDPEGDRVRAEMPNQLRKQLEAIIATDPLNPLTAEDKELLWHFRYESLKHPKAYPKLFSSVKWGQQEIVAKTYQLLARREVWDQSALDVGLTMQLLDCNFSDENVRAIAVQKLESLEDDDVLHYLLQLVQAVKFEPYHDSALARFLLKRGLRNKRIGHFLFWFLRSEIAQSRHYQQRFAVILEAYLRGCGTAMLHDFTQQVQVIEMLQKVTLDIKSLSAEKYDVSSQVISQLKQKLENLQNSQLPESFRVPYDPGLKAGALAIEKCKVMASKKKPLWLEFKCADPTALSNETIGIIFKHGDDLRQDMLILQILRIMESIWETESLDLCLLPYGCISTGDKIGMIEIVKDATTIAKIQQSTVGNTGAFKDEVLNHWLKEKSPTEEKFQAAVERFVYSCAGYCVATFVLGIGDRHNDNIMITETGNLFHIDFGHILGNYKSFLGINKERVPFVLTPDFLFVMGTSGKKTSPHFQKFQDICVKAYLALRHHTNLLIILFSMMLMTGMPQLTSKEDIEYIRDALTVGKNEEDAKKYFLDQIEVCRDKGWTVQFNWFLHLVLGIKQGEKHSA
For orientation: pIC50 means the negative decadic logarithm of the IC50, by convention in mol/L. A high value points to a low IC50. As for `CC(C)Cc1ccc(-c2nn(C)c3nc(N)ncc23)cc1`, the pIC50 is greater than 5.70.

Regarding `Cn1nc(-c2cc(F)c(O)c(Br)c2)c2cnc(N)nc21`, the negative-log IC50 (pIC50) was greater than 5.70.

With `Cn1nc(-c2ccncc2)c2cnc(N)nc21`, the pIC50 is greater than 5.70.

For `CC(C)Oc1ccc(-c2nn(C)c3nc(N)ncc23)cc1F`, the pIC50 is greater than 5.70.

With `COc1ccc(C(F)(F)F)cc1-c1nn(C)c2nc(N)ncc12`, the pIC50 is greater than 5.70.

Compound `CCOc1ccc(-c2nn(C)c3nc(N)ncc23)cc1F` gave a pIC50 greater than 5.70.

`Cn1nc(-c2cc(F)ccc2O)c2cnc(N)nc21` gave a pIC50 greater than 5.70.

Turning to `Cn1nc(-c2cncc(C(F)(F)F)c2)c2cnc(N)nc21`, the pIC50 was greater than 5.70.

For the compound `Cn1nc(-c2cc(Cl)c(O)cc2O)c2cnc(N)nc21`, the pIC50 is greater than 5.70.

`Cn1nc(-c2cc(F)c3[nH]ccc3c2)c2cnc(N)nc21` gave a pIC50 greater than 5.70.

For `COc1ncc(-c2nn(C)c3nc(N)ncc23)cn1`, the pIC50 is greater than 5.70.

With `Cn1nc(-c2cc(F)c(C=O)c(F)c2)c2cnc(N)nc21`, the pIC50 is greater than 5.70.

The compound `CC(C)Oc1ccc(-c2nn(C)c3nc(N)ncc23)cc1Cl` showed a pIC50 greater than 5.70.

On to `Cn1nc(-c2ccc(F)c(Cl)c2)c2cnc(N)nc21`, for which the pIC50 is greater than 5.70.

`Cn1nc(-c2ccc(OCC#N)c(F)c2)c2cnc(N)nc21`: the pIC50 was greater than 5.70.

`Cn1nc(-c2ccc3c(c2)OCCO3)c2cnc(N)nc21`: the pIC50 was greater than 5.70.

Take `Cn1nc(-c2cc(Cl)c(O)c(Cl)c2)c2c(NCCN3CCOCC3)nc(N)nc21`: the pIC50 is greater than 5.70.

`COc1ccc(-c2nn(C)c3nc(N)ncc23)cc1Cl`: the negative-log IC50 (pIC50) was greater than 5.70.

Compound `COc1c(F)cc(-c2nn(C)c3nc(N)ncc23)cc1NC(C)=O` gave a pIC50 greater than 5.70.

Compound `Cn1nc(-c2cc(F)c(O)c(C=O)c2)c2cnc(N)nc21` had a pIC50 greater than 5.70.

On to `COc1cc(-c2nn(C)c3nc(N)ncc23)cc(OC)c1OC`, for which the pIC50 is greater than 5.70.

`Cn1nc(-c2ccc(O)c(C(F)(F)F)c2)c2cnc(N)nc21` had a pIC50 greater than 5.70.

Compound `Cn1nc(-c2ccc(O)cc2O)c2cnc(N)nc21` had a pIC50 greater than 5.70.

Take `Cn1nc(-c2cc(Cl)c(O)c(Br)c2O)c2cnc(N)nc21`: the pIC50 is greater than 5.70.

As for `Cn1nc(-c2cccc(F)c2O)c2cnc(N)nc21`, the pIC50 was greater than 5.70.

`Cn1nc(-c2cccc(O)c2)c2cnc(N)nc21` had a pIC50 greater than 5.70.

As for `CC(=O)c1cccc(-c2nn(C)c3nc(N)ncc23)c1F`, the pIC50 was greater than 5.70.

Compound `COc1cc(F)ccc1-c1nn(C)c2nc(N)ncc12` had a negative logarithm of the IC50 (pIC50) greater than 5.70.

The compound `COc1ccc(C=O)cc1-c1nn(C)c2nc(N)ncc12` had a pIC50 greater than 5.70.

In turn, `Cn1nc(-c2cc(F)c(O)c(F)c2)c2cnc(N)nc21` gave a negative logarithm of the IC50 (pIC50) greater than 5.70.

Regarding `Cn1nc(-c2cccc(F)c2)c2cnc(N)nc21`, the pIC50 was greater than 5.70.

`COc1cc(-c2nn(C)c3nc(N)ncc23)cc(Cl)c1O` had a negative logarithm of the IC50 (pIC50) greater than 5.70.

`Cn1nc(-c2ccc(OCCN3CCOCC3)c(F)c2)c2cnc(N)nc21` showed a pIC50 greater than 5.70.

Compound `Cn1nc(-c2cc(Cl)c(O)c(Cl)c2)c2cnc(N)nc21` had a negative logarithm of the IC50 (pIC50) greater than 5.70.

`COc1cc(OC)c(S(=O)(=O)O)cc1-c1nn(C)c2nc(N)ncc12` gave a pIC50 greater than 5.70.

As to `Cn1nc(-c2cc(Cl)c(OC(F)(F)F)c(Br)c2O)c2cnc(N)nc21`, the pIC50 is greater than 5.70.

`COc1ncc(-c2nn(C)c3nc(N)ncc23)cc1F`: the pIC50 is greater than 5.70.

The compound `Cn1nc(-c2cc(F)c(O)c(Cl)c2)c2cnc(N)nc21` showed a pIC50 greater than 5.70.

Compound `CC(=O)c1ccc(-c2nn(C)c3nc(N)ncc23)cc1` had a pIC50 greater than 5.70.

The compound `Cc1[nH]c2ccc(-c3nn(C)c4nc(N)ncc34)cc2c1C` had a pIC50 greater than 5.70.

As for `Cn1nc(-c2ccc(F)c(F)c2)c2cnc(N)nc21`, the pIC50 is greater than 5.70.

Regarding `Cn1nc(-c2ccc(OCCN3CCCC3)c(F)c2)c2cnc(N)nc21`, the pIC50 is greater than 5.70.

In the case of `CC(C)NC(=O)c1cccc(-c2nn(C)c3nc(N)ncc23)c1`, the pIC50 was greater than 5.70.

In the case of `Cn1nc(-c2ccc(OCCn3ccnc3)c(F)c2)c2cnc(N)nc21`, the negative logarithm of the IC50 (pIC50) is greater than 5.70.

The compound `Cn1nc(-c2cc(F)cc(Br)c2)c2cnc(N)nc21` had a pIC50 greater than 5.70.

The compound `Cn1nc(-c2cc(F)c(O)c(C#N)c2)c2cnc(N)nc21` showed a pIC50 greater than 5.70.

Compound `COc1ccc(-c2nn(C)c3nc(N)nc(NCc4ccccc4)c23)cc1F` gave a negative-log IC50 (pIC50) greater than 5.70.

`Cn1nc(-c2ccc(F)c(F)c2F)c2cnc(N)nc21` gave a pIC50 greater than 5.70.

`Cn1nc(-c2cc(C=O)ccc2O)c2cnc(N)nc21` showed a pIC50 greater than 5.70.

The compound `COc1ccc(-c2nn(C)c3nc(N)ncc23)c(OC)c1` gave a pIC50 greater than 5.70.

In the case of `COc1ccc(-c2nn(C)c3nc(N)ncc23)cc1F`, the pIC50 was greater than 5.70.

Regarding `Cn1nc(-c2ccc(OCCO)c(F)c2)c2cnc(N)nc21`, the pIC50 is greater than 5.70.

In turn, `Cn1nc(-c2ccc(OC(F)(F)F)cc2O)c2cnc(N)nc21` had a pIC50 greater than 5.70.

`Cn1nc(-c2cccc(Br)c2OCc2ccccc2F)c2cnc(N)nc21` had a pIC50 greater than 5.70.

The compound `COc1ccc(CO)cc1-c1nn(C)c2nc(N)ncc12` showed a pIC50 greater than 5.70.

The compound `Cn1nc(-c2cncc(S(C)(=O)=O)c2)c2cnc(N)nc21` had a pIC50 greater than 5.70.

Compound `CC(C)CNC(=O)c1cccc(-c2nn(C)c3nc(N)ncc23)c1` showed a negative-log IC50 (pIC50) greater than 5.70.

As to `Cn1nc(-c2cccc(S(C)(=O)=O)c2)c2cnc(N)nc21`, the pIC50 was greater than 5.70.

On to `COc1c(Cl)cc(C(F)(F)F)cc1-c1nn(C)c2nc(N)ncc12`, for which the negative logarithm of the IC50 (pIC50) is greater than 5.70.

In turn, `Cn1nc(-c2cc(F)cc(OCC(=O)O)c2)c2cnc(N)nc21` showed a pIC50 greater than 5.70.

`COc1cc(OC)c(-c2nn(C)c3nc(N)ncc23)cc1Cl` gave a pIC50 greater than 5.70.

As for `COc1ccc(-c2nn(C)c3nc(N)ncc23)cc1`, the pIC50 is greater than 5.70.

`COc1ccc(C(=O)O)cc1-c1nn(C)c2nc(N)ncc12` gave a pIC50 greater than 5.70.

As to `Cn1nc(-c2ccc3ccoc3c2)c2cnc(N)nc21`, the pIC50 is greater than 5.70.

`CN1CCN(CCCOc2ccc(-c3nn(C)c4nc(N)ncc34)cc2F)CC1` showed a pIC50 greater than 5.70.

Consider `COc1ncc(-c2nn(C)c3nc(N)ncc23)c(OC)n1`, for which the pIC50 was greater than 5.70.

Compound `Cn1nc(-c2ccc(OCCCN3CCOCC3)c(F)c2)c2cnc(N)nc21` showed a pIC50 greater than 5.70.

`CNS(=O)(=O)c1cc(-c2nn(C)c3nc(N)ncc23)ccc1Cl` gave a pIC50 greater than 5.70.

`COc1ccc(Br)cc1-c1nn(C)c2nc(N)ncc12`: the pIC50 was greater than 5.70.

On to `Cn1nc(-c2cnc(N)c(C(F)(F)F)c2)c2cnc(N)nc21`, for which the pIC50 is greater than 5.70.

The compound `Cn1nc(-c2cc(F)c(OCCO)c(Br)c2)c2cnc(N)nc21` showed a pIC50 greater than 5.70.

As for `Cn1nc(-c2cc(F)cc(F)c2)c2cnc(N)nc21`, the negative logarithm of the IC50 (pIC50) is greater than 5.70.

`CNC(=O)c1cccc(-c2nn(C)c3nc(N)ncc23)c1` had a pIC50 greater than 5.70.

`Cc1noc(C)c1-c1nn(C)c2nc(N)ncc12` gave a pIC50 greater than 5.70.

On to `COc1ccc(C(=O)NC(C)C)cc1-c1nn(C)c2nc(N)ncc12`, for which the pIC50 is greater than 5.70.

`Cn1nc(-c2cc(Cl)ccc2O)c2cnc(N)nc21` had a negative logarithm of the IC50 (pIC50) greater than 5.70.

`Cn1nc(-c2cccc(C(F)(F)F)c2)c2cnc(N)nc21` showed a pIC50 greater than 5.70.

Consider `Cn1nc(-c2cc(F)c(C#N)c(F)c2)c2cnc(N)nc21`, for which the pIC50 was greater than 5.70.

Compound `Cn1nc(-c2cccc(NS(C)(=O)=O)c2)c2cnc(N)nc21` gave a pIC50 greater than 5.70.

In the case of `Cn1nc(-c2ccc(O)c(F)c2)c2cnc(N)nc21`, the negative logarithm of the IC50 (pIC50) was greater than 5.70.

In the case of `Cn1nc(-c2cccc(C#N)c2)c2cnc(N)nc21`, the pIC50 was greater than 5.70.

In the case of `COc1c(F)cc(F)cc1-c1nn(C)c2nc(N)ncc12`, the pIC50 was greater than 5.70.

`CCN(CC)S(=O)(=O)c1cc(-c2nn(C)c3nc(N)ncc23)ccc1O` had a negative logarithm of the IC50 (pIC50) greater than 5.70.

Take `Cn1nc(-c2cc(F)c(OCCN3CCCC3)c(Br)c2)c2cnc(N)nc21`: the negative-log IC50 (pIC50) was greater than 5.70.

Consider `Cn1nc(-c2cc(O)cc(F)c2)c2cnc(N)nc21`, for which the pIC50 was greater than 5.70.

Compound `COc1c(F)cc(-c2nn(C)c3nc(N)ncc23)cc1F` gave a pIC50 greater than 5.70.

`CC(=O)c1cccc(-c2nn(C)c3nc(N)ncc23)c1` had a pIC50 greater than 5.70.

Turning to `COc1ccc(F)cc1-c1nn(C)c2nc(N)ncc12`, the pIC50 is greater than 5.70.

Compound `COc1ccc(Cl)cc1-c1nn(C)c2nc(N)ncc12` showed a pIC50 greater than 5.70.

On to `Cn1nc(-c2cccc3cccnc23)c2cnc(N)nc21`, for which the pIC50 was greater than 5.70.

For `CCCOc1cc(F)ccc1-c1nn(C)c2nc(N)ncc12`, the pIC50 was greater than 5.70.

In the case of `Cn1nc(-c2cnc(N3CCNCC3)nc2)c2cnc(N)nc21`, the pIC50 was greater than 5.70.

Take `Cc1cccc(-c2nn(C)c3nc(N)ncc23)c1`: the pIC50 is greater than 5.70.

`Cn1nc(-c2cc(Cl)c(O)c(C(F)(F)F)c2)c2cnc(N)nc21` had a pIC50 greater than 5.70.

In turn, `CNS(=O)(=O)c1cccc(-c2nn(C)c3nc(N)ncc23)c1` gave a pIC50 greater than 5.70.

As to `COc1ccc(OC)c(-c2nn(C)c3nc(N)ncc23)c1`, the pIC50 was greater than 5.70.

Turning to `Cn1nc(-c2cc(Br)c(O)c(Br)c2)c2cnc(N)nc21`, the pIC50 is greater than 5.70.

Take `Cn1nc(-c2ccc(N)c(F)c2)c2cnc(N)nc21`: the pIC50 is greater than 5.70.

For the compound `Cn1nc(-c2cc(F)c(F)c(F)c2)c2cnc(N)nc21`, the pIC50 is greater than 5.70.

Turning to `COc1ccc(-c2nn(C)c3nc(N)ncc23)cc1Br`, the pIC50 was greater than 5.70.

The compound `Cc1ccc(-c2nn(C)c3nc(N)ncc23)cc1[N+](=O)[O-]` showed a pIC50 greater than 5.70.

Regarding `Cn1nc(-c2ccc(OCCCO)c(F)c2)c2cnc(N)nc21`, the negative-log IC50 (pIC50) is greater than 5.70.

As to `COc1ccc(-c2nn(C)c3nc(N)ncc23)cn1`, the pIC50 is greater than 5.70.

Regarding `COc1cc(OC(F)(F)F)ccc1-c1nn(C)c2nc(N)ncc12`, the negative-log IC50 (pIC50) was greater than 5.70.

`Cn1nc(-c2ccc(C#N)cc2)c2cnc(N)nc21`: the pIC50 is greater than 5.70.

In the case of `COc1cc(-c2nn(C)c3nc(N)ncc23)ccn1`, the pIC50 was greater than 5.70.

On to `Cn1nc(-c2cc(C(F)(F)F)ccc2O)c2cnc(N)nc21`, for which the pIC50 was greater than 5.70.

`COc1cc(OC(F)(F)F)c(Cl)cc1-c1nn(C)c2nc(N)ncc12` gave a pIC50 greater than 5.70.

Regarding `Cn1nc(-c2cc(Cl)cc(Br)c2O)c2cnc(N)nc21`, the negative-log IC50 (pIC50) is greater than 5.70.
